Data on twelve compounds can be found in US20140329863A1 (priority 2011, published 2014).

Values after ≈ are worked out from the molar mass of the structure shown. Read-outs that look alike come from different tables or passages of the source.

The nature of series [1]: physchem.
The test system of series [2] is PrP^Sc in dividing ScN2a-c13 cells. Particulars: read-out: EC50 (ELISA), reduction of PrP^Sc load; dividing ScN2a-c13 cells. In general terms: In an ELISA, binding on a coated surface is turned into a signal by an enzyme label.
For series [3], the system named is N2a-cl3 cells. The experiment in a line: cells. Particulars: Mus musculus, N2a-cl3, read-out: Dividing Calcein EC50 (μM) Mean (n = 3).
A short description of series [4]: Multiple-dose (three-day) pharmacokinetic studies in FVB mice, drug in liquid diet. Type of series: in vivo, mouse. The conditions noted are these: three days in liquid diet, higher doses (up to 210 mg/kg/day). The procedure: Aminothiazole analog (e.g., 4.5 g of 27) was added to 15 mL of pure PEG400, vortexed and sonicated to ensure dissolution, then stored at −4° C. until needed. This highly concentrated PEG400 solution was subsequently diluted to final dosing concentrations, where the volume added was composed of homogenized solid rodent feed, cocoa (taste masking agent), and water. Wild-type FVB mice weigh ˜25 gm and typically drink 20 mL of liquid diet per day, allowing an estimate of daily drug consumption. A single dosing cohort consisted of three mice in a shared cage and liquid diet was provided at the start of the study in sufficient volume to last for the entire three-day trial (˜200 mL). At the end of the three-day dosing period, animals were euthanized by CO2, followed by collection of plasma (cardiac puncture) and removal of whole brain. Heparinized blood was centrifuged to separate plasma and both plasma and brain samples were stored at −80° C. prior to analysis. Plasma samples were prepared for analysis by precipitating proteins and reconstituting the remaining fraction with HPLC mobile phase. Brain samples were typically prepared by four-fold dilution with water after weighing, then homogenized using bead-beater or Polytron™ resulting in a highly concentrated solution that was further diluted with mobile phase as appropriate in preparation for bioanalytical analysis using LC-MS. Analysis was by LC-MS (Shimadzu dual-HPLC pumps, C18 analytical column, with detection using an Applied Biosystems API-4000 triple quadrupole mass spectrometer).
Ten compounds were selected from among the 34 2-AMTs for three-day multiple-dose PK studies at PO doses ranging from 40-210 mg/kg. Selection was based on diversity in potency, chemical structure, and a range of physicochemical properties. We used a liquid diet to facilitate easy drug administration, as well as serve as the daily source of all water and food. This approach was chosen because the mouse bioassay studies that would be used to assess drug effects on survival would be expected to run for 110 to 400 days, or more; gavage dosing for such a long period is not feasible and more stressful to mice. For the multiple-dose PK studies, 4.5 g of the 2-AMT analogs was added to 15 mL of pure PEG400, vortexed and sonicated to ensure dissolution, then stored at −4° C. until needed. This highly concentrated PEG400 solution was subsequently diluted to final dosing concentrations and added to the rodent liquid diet, cocoa (taste-masking agent), and water.
Wild-type FVB mice weigh ˜25 g and typically drink 20 mL of liquid diet per day, allowing an estimate of daily drug consumption. A single dosing cohort consisted of three mice in a shared cage and liquid diet was provided at the start of the study in sufficient volume (˜200 mL) to last for the entire three-day period. At the end of the dosing period, animals were euthanized by CO2, followed by collection of plasma (cardiac puncture) and removal of whole brain. Samples were processed and stored as described above for the 10 mg/kg single-dose studies.
Plasma and brain homogenate samples were extracted using a protein-precipitation method and analyzed by specific LC/MS/MS methods developed for each compound dosed in vivo. The analytical method accuracy and precision were monitored by analyzing quality control (QC) samples that were prepared by the same methods as the plasma or brain homogenate samples. The brain and plasma concentration data were used to calculate the maximal concentration (Cmax), area under the concentration-time curve (AUClast), and absolute bioavailability (% F) by noncompartmental analysis with sparse sampling performed using Phoenix WinNonlin 6.1 software (Pharsight, Mountain View, Calif.).

For series [5], the system named is MDCK-MDR1 cells. The experiment in a line: Permeability in MDCK-MDR1 cells. Particulars: MDR1-MDCK cell monolayers; for Permeability PA→B: apical to basal; for Permeability PB→A: basal to apical.
Series [6] concerns PrP^Sc in nondividing ScN2a-cl3 cells. Type of series: cell-based, mouse. The conditions noted are these: read-out: Non-Dividing ELISA EC50 (μM) Mean (n = 3); ScN2a-c13 non-dividing cells; mean n = 3.
Series [7] deals with PrP^Sc in dividing ScN2a-cl3 cells. Type of series: cell-based, mouse. Set-up: Dividing ELISA pEC50 (μM) 1st Expt. / Dividing ELISA pEC50 (μM) 2nd Expt. / Dividing ELISA pEC50 (μM) 3rd Expt. / Dividing ELISA pEC50 (μM) Mean: unit not given here.
Series [8] in a line: Hepatic microsomal stability, rat. The conditions noted are these: […].
The conditions of series [9]: […].
Series [10] can be described thus: Binding in human plasma. Particulars: 1 μM; mean ± SD, n = 3 (warfarin n = 2).
Series [11] deals with ScN2a-c13 cells. Nature of the series: cells. Type of series: cell-based. The conditions noted are these: Mus musculus; N=3; read-out: EC50 by calcein for cell viability.
Series [12] has as its system N2a-cl3 cells. The conditions noted are these: read-out: Dividing Calcein EC50 (μM) Mean (n = 3).
The test system of series [13] is MDCK-MDR^1 cells (P-glycoprotein). Nature of the series: Bidirectional MDCK-MDR1 cell permeability. Type of series: in vitro ADME, canine. The procedure:
MDCK-MDR^1 cells were grown to confluence for 5-10 days on 1-μm filters in 24-well plates {Hilgers, 1990}. Aliquots of DMSO stocks were diluted into Hank's balanced salt solution (HBSS), pH 7.4, containing […] to give 10-μM solute concentration. The solute containing donor solutions were transferred to either the apical or basolateral chamber of the permeability diffusion apparatus. Receiver solutions consisted of HBSS (pH 7.4) containing 25 mM HEPES+0.05% PS80. Sequential samples of transported solute were taken at 20-min intervals using an automated liquid handling platform. The concentration of transported solute during each sampling interval was determined by HPLC/UV/MS. Permeability coefficients were calculated for each sampling interval. The average and standard deviation from the intervals are reported. Mass balance in the system was ascertained by comparing the sum of total transported solute and remaining donor solute with the starting mass of solute and is expressed as a percentage of donor solute at time zero. […] In the event of mass balance less than 70%, the cell monolayers were extracted with ACN and analyzed for the solute of interest. Determinations were conducted in duplicate.

Setting [14] is: pH 1.2, simulated gastric fluid.
Setting [15] is: ScN2a-cl3 dividing cells, 1st determination.
Setting [16] is: ScN2a-cl3 dividing cells, 2nd determination.
Where [17] appears, read: ScN2a-cl3 dividing cells, 3rd determination.
[18] abbreviates: ScN2a-cl3 dividing cells, mean of three determinations.
Where [19] appears, read: read-out: Dividing ELISA EC50 (μM) 1st Expt., ScN2a-cl3 dividing cells, 1st determination.

In general, solubility refers to how much of the substance goes into solution per volume. The term EC50 denotes the concentration needed to bring the measured effect to its halfway point.

Regarding `CN(C)c1cccc(Nc2nc(-c3ccc(-c4ccccc4)cc3)cs2)n1` [IND-0116142], the “Analiza solubility (μM) pH 7.4” value is less than 0.5 μM. In series [1] (setting [14]), this compound displayed a solubility of 16.1 µM (≈ 6 µg/mL). Besides, in series [1] (pH 7.4, aqueous buffer), the solubility is less than 0.5 µM.
`Cc1ccc(Nc2nc(-c3cc(-c4ccccc4)no3)cs2)nc1` [compound 27, (5-Methylpyridin-2-yl)-[4-(3-phenylisoxazol-5-yl)-thiazol-2-yl]-amine]: the concentration for a half-maximal effect (EC50) was 940 nM in series [2]; more than 32 µM in [3]; more than 32 µM in series [6]; 0.94 µM in series [7] (read-out: Antiprion activity ScN2a-cl3 EC50, ScN2a-cl3 cells); 1.09 µM in [7] (setting [19]); 0.747 µM in [7] (read-out: Dividing ELISA EC50 (μM) 2nd Expt., ScN2a-cl3 dividing cells, 2nd determination). The EC50 turned out to be 0.994 µM in series [7] (read-out: Dividing ELISA EC50 (μM) 3rd Expt., ScN2a-cl3 dividing cells, 3rd determination) and 0.945 µM in series [7] (read-out: Dividing ELISA EC50 (μM) Mean, ScN2a-cl3 dividing cells, mean of three determinations). Also, in series [4], the “mean brain concentration in excess of EC50” value was not above 25 fold. Moreover, the “Permeability PA→B” value in [5] is 6.8 10^−6 cm/sec. The “Permeability PB→A” value in series [5] was 8.3 10^−6 cm/sec. The “Dividing ELISA pEC50 (μM) 1st Expt.” value in series [7] (setting [15]) is 5.96. Also, the “Dividing ELISA pEC50 (μM) 2nd Expt.” value in [7] (setting [16]) turned out to be 6.13. Moreover, the “Dividing ELISA pEC50 (μM) 3rd Expt.” value in [7] (setting [17]) is listed as 6.00. Further, in series [7] (setting [18]), the “Dividing ELISA pEC50 (μM) Mean” value came to 6.03. Further, in series [8], the “Microsome stability T1/2” value is listed as 151 min. The “metabolic stability (in words)” value in series [9] is “excellent stability”.
For the compound `CC(=O)CC(c1ccccc1)c1c(O)c2ccccc2oc1=O` (stereo not drawn) [Warfarin, warfarin, reference compound], in [10], the “Unbound (%), Human Plasma” value is reported as 0.68 ± 0.0023%.
With `COc1ccc(Nc2nc(-c3cc(-c4ccccc4)no3)cs2)nc1` [IND120, (5-Methoxy-pyridin-2-yl)-[4-(3-phenyl-isoxazol-5-yl)-thiazol-2-yl]-amine], the EC50 is 229 nM in series [2], more than 10 µM in [11] and 0.229 µM in series [7] (AMT analogs tested for potency).
With `Cc1cccc(Nc2nc(-c3ccc(-c4ccnc(OC(C)C)c4)cc3)cs2)n1` [IND-0116096], the “Analiza solubility (μM) pH 1.2” value was more than 150 μM. In addition, the solubility in series [1] (setting [14]) is more than 150 µM. For the same compound, in series [1] (pH 7.4, aqueous buffer), the solubility is 3.1 µM (≈ 1.25 µg/mL).
As for `Cc1ccc(Nc2nc(-c3ccncc3)cs2)nc1` [compound 23], the “Permeability PA→B” value in series [5] is on record as 32.6 10^−6 cm/sec. Further, the “Permeability PB→A” value in series [5] was 42.3 10^−6 cm/sec. Further, the EC50 in series [6] was more than 32 µM; in [7] (ScN2a-cl3 cells, read-out: Antiprion activity ScN2a-cl3 EC50), 1.57 µM; in [7] (ScN2a-cl3 dividing cells, 1st determination, read-out: Dividing ELISA EC50 (μM) 1st Expt.), 1.12 µM; in series [7] (ScN2a-cl3 dividing cells, 2nd determination, read-out: Dividing ELISA EC50 (μM) 2nd Expt.), 1.75 µM; in series [7] (ScN2a-cl3 dividing cells, 3rd determination, read-out: Dividing ELISA EC50 (μM) 3rd Expt.), 1.85 µM; in series [7] (ScN2a-cl3 dividing cells, mean of three determinations, read-out: Dividing ELISA EC50 (μM) Mean), 1.57 µM. In addition, the EC50 in series [12] was more than 32 µM. Further, in series [7] (setting [15]), the “Dividing ELISA pEC50 (μM) 1st Expt.” value was determined as 5.95. In addition, the “Dividing ELISA pEC50 (μM) 2nd Expt.” value in series [7] (setting [16]) is on record as 5.76. In addition, the “Dividing ELISA pEC50 (μM) 3rd Expt.” value in series [7] (setting [17]) came to 5.73. Besides, the “Dividing ELISA pEC50 (μM) Mean” value in series [7] (setting [18]) is 5.81. The “Microsome stability T1/2” value in series [8] turned out to be 20 min.
Regarding `COCCOc1cc(-c2ccc(-c3csc(Nc4cccc(C)n4)n3)cc2)ccn1` [IND-0116099], the “Analiza solubility (μM) pH 7.4” value is reported as less than 0.5 μM. In [1] (setting [14]), this compound came in with a solubility of 126 µM (≈ 52.5 µg/mL). Further, in [1] (pH 7.4, aqueous buffer), the solubility was less than 0.5 µM.
Regarding `COc1ccnc(Nc2nc(-c3cc(-c4ccccc4)no3)cs2)c1` [IND112, (4-Methoxy-pyridin-2-yl)-[4-(3-phenyl-isoxazol-5-yl)-thiazol-2-yl]-amine], the EC50 in [2] was 251 nM; in series [11], more than 10 µM; in [7] (AMT analogs tested for potency), 0.251 µM.
With `Cc1cccc(Nc2nc(-c3ccc(-c4ccc(OCC#N)nc4)cc3)cs2)n1` [IND-0116165], the “Analiza solubility (μM) pH 7.4” value was less than 0.4 μM. Moreover, the concentration in solution in [1] (setting [14]) (solubility) was 2.2 µM (≈ 0.879 µg/mL). In [1] (pH 7.4, aqueous buffer), this compound registered a solubility of less than 0.4 µM.
On to `Cc1cccc(Nc2nc(-c3ccc(-c4ccnc(N(C)C)c4)cc3)cs2)n1` [IND-0116095], for which the “Analiza solubility (μM) pH 1.2” value is given as more than 150 μM. For the same compound, in series [1] (setting [14]), the solubility was more than 150 µM. In addition, in series [1] (pH 7.4, aqueous buffer), the solubility came out at 1.6 µM (≈ 0.62 µg/mL).
Turning to `Cc1cccc(Nc2nc(-c3ccc(-c4ccnc(OCC#N)c4)cc3)cs2)n1` [IND-0116138], the “Analiza solubility (μM) pH 1.2” value is more than 150 μM and the “Analiza solubility (μM) pH 7.4” value is given as less than 0.4 μM. The compound further came in with a solubility in [1] (setting [14]) of more than 150 µM. For the same compound, the solubility in series [1] (pH 7.4, aqueous buffer) is less than 0.4 µM.
On to `COc1ccc(-c2csc(Nc3cc4ccccc4cn3)n2)cc1OC` [compound 17, [4-(3,4-dimethoxyphenyl)-thiazol-2-yl]isoquinolin-3-yl-amine], for which the EC50 in series [3] was more than 32 µM; in series [6], more than 32 µM; in [7] (setting [19]), 0.101 µM. Further, in [13], the “P-gp substrate status, absorptive vs secretory permeability” value is on record as “greater permeability in the absorptive direction”. Also, in series [8], the “Microsome stability T1/2” value was 83 min. In [9], the “metabolic stability (in words)” value is reported as “excellent stability”.
